Results taken from patent US20250204528A1, “USE OF 2-AMINO-3-INDOLYL BUTYRIC ACID OR 3-METHYLPYRROLIDINE-2-CARBOXYLIC ACID AS PLANT IMMUNITY ELICITOR” (NANJING TIANNONG BIOTECHNOLOGY CO., LTD, priority 2021, published 2025).
Where “and” joins values, the source holds several entries; their conditions need not be identical. Identical values can stand only once.

Assays:
"Sikang 1" cotton = test: Cotton under salt stress (100 mM NaCl); assay type: in vivo; conditions: 100 mM NaCl three days; for Mortality (%): cotton plants
Description: An experimental material was “Sikang 1” cotton which was hydroponic in a 500-mL plastic cup, and a ½ Hoagland nutrient solution was replaced every other two days. When the cotton seedling grew until the second true leaves were completely unfolded, a 2-amino-3-indolyl butyric acid solution was sprayed on the leaf surfaces. Concentrations at 0 nm, 1 nm, 10 nm, 100 nm and 1,000 nm were set in the experiment. Meanwhile, 0.02% Tween 20 was added as a surfactant. The solution was sprayed every 24 h for 2 times and NaCl was added into a ½ Hoagland nutrient solution the next day after the treatment to make the final concentration of 100 mM to perform a salt stress treatment. Each treatment was performed in three replicates. A rehydration treatment was performed after three days of the salt stress. The salt damage symptoms of the cotton were observed and a salt damage index was calculated by using a calculation formula as follows.

[1] = test system: wheat powdery mildew fungus; test: Induction of wheat against infection by powdery mildew fungi (greenhouse pots); assay type: in vivo, wheat (NAU0686); conditions: for Disease index of the susceptible wheat / Relative immune effect: concentration greater than 1,000 nm
Description: […] A blank control was additionally set. After germination of wheat (NAU0686) seeds was accelerated, the wheat was planted in a sterilized soil culture bowl and cultured in a greenhouse at 23±1° C. with the illumination for 12 h. When the seedlings grew to a stage of one true leaf and one terminal bud, the wheat seedlings were sprayed with the 2-amino-3-indolyl butyric acid solutions at the above concentrations on stems and leaves. The treatment was repeated once every 24 h and a total of two treatments was performed. Fresh wheat powdery mildew fungus spores were evenly scattered on the wheat leaves after 24 h. 3 pots of the plants were treated each time with 20 plants in each pot. After 10 d, the disease grade of the wheat after each treatment was investigated. The disease degree was recorded according to the wheat powdery mildew grading standard in the Guidelines for Field Efficacy Trials of Pesticides (I), and the disease indexes and the relative immune effects were calculated by using the same calculation formula as that of those of the tomato spotted wilt.
Grading standard of wheat powdery mildew (taking leaves as units): • grade 1: the area of the disease spots accounted 5% or less of that of the whole leaves; • grade 3: the area of the disease spots accounted for 6%-15% of that of the whole leaves; and • grade 5: the area of the disease spots accounted for 16%-25% of that of the whole leaves; and • grade 7: the area of the disease spots accounted for 26%-50% of that of the whole leaves; and • grade 9: the area of the disease spots accounted for 50% or more of that of the whole leaves.

[2] = test system: tomato spotted wilt viruses; test: Induction of tobacco against infection by tomato spotted wilt viruses; assay type: in vivo, Nicotiana benthamiana; conditions: for Disease index / Relative immune effect (%): tobacco; for Disease indexes of the tobacco / Relative immune effects: each treatment in concentration range 0.1-10 nm; for Content of virus proteins: relative protein content in leaves after 3 d, Western blot/Image J
Description: Tomato spotted wilt viruses were taken from Yunnan province of China. An initial virus source was placed in a refrigerator at −80° C. for storage and activated by inoculation on Nicotiana benthamiana leaves by using a friction inoculation. Virus plasmids were extracted for transformation of Escherichia coli competent cells. The bacteria were coated on a resistant plate for culture, single colonies were selected for PCR screening, and positive colonies were selected for sequencing and subsequent plasmid extraction. The plasmids with normal sequencing were added into Agrobacterium competent cells and subjected to the Agrobacterium transformation by using an electric shock method. The transformed Agrobacterium liquid was coated on a screening plate with corresponding resistance and cultured at 28±1° C. for 48 h. Single colonies of the Agrobacterium on the transformation plate were selected, placed in a 5-mL LB medium containing the corresponding resistance and cultured overnight at 28° C. and 180 rpm. The bacteria were collected by centrifugation at 6,000 rpm for 2 min, suspended in an Agrobacterium treatment buffer (10 mM MgCl2, 10 mM MES and 10 μM acetosyringone) to enable the OD600 value of the suspension to be 0.5, and treated in a dark place at 28° C. for 3 h for later use.
2-amino-3-indolyl butyric acid was dissolved in distilled water and gradiently diluted with distilled water to obtain solutions of 0 nM, 0.1 nM, 1 nM and 10 nM. Nicotiana benthamiana seeds were sown in a small pot, illuminated at 22±1° C. for 12 h/12 h, and cultured for 5 weeks. Healthy tobacco plants (preferably 8-10 leaves) were selected and sprayed with the 2-amino-3-indolyl butyric acid solutions at the above concentrations on stems and leaves. The treatment was repeated once every 24 h and a total of two treatments was performed. After 24 h, the Agrobacterium liquid with the uniform concentration was extracted by using a 1 mL injector, an injection port of the injector was directly pressed on a small hole on the back of the tobacco leaves, and the bacterium liquid was slowly injected to infiltrate the whole leaves. The infiltrated tobacco was transferred to the environment at 22±1° C. and with 12 h/12 h illumination for culturing. The tobacco was observed and recorded by a microscope after 3 d. Meanwhile, the sample was taken, the gray levels of protein bands were analyzed by using Western blot combined with an Image J software, and the relative protein content of the viruses in the leaves was determined. The disease condition of the tobacco leaves was observed after 15 d and the disease index was recorded according to GB/T23222-2008 Grade and investigation method of tobacco diseases and insect pests. The formula was as follows: […]
Grading standard of diseases caused by tomato spotted wilt viruses (grading and investigation by taking plants as units): • grade 0: the whole plants were disease-free; • grade 1: the veins of interior leaves were obvious or leaves were slightly spotted, and the diseased plants were not obviously dwarfed; • grade 3: one third leaves were spotted but not deformed, or the plants were dwarfed to the heights of more than three fourths of those of normal plants; • grade 5: one third to one half leaves were spotted, or a few leaves were deformed, or main veins were blackened, or the plants were dwarfed to the heights of two thirds to three fourths of those of the normal plants; • grade 7: one half to two thirds leaves were spotted or deformed, or a few main lateral veins were necrotic, or the plants were dwarfed to the heights of one half to two thirds of those of the normal plants; and • grade 9: the leaves of the whole plates were spotted, severely deformed or necrotic, or the diseased plants were dwarfed to the heights of […] of those of the normal plants.

[3] = treatment concentration 10,000 nm
[4] = 10 nm, as printed with % in summary
[5] = treatment concentration 0.1 nm, 15 d after inoculation
[6] = treatment concentration 1 nm, 15 d after inoculation

SMILES | Salt damage index (%) ("Sikang 1" cotton; 1 nm) | Mortality (%) ("Sikang 1" cotton; 1 nm) | Salt damage index (%) ("Sikang 1" cotton; 10 nm) | Mortality (%) ("Sikang 1" cotton; 10 nm) | Salt damage index (%) ("Sikang 1" cotton; 100 nm) | Mortality (%) ("Sikang 1" cotton; 100 nm) | Salt damage index (%) ("Sikang 1" cotton; 1,000 nm) | Mortality (%) ("Sikang 1" cotton; 1,000 nm) | Disease index of the susceptible wheat [1] | Relative immune effect [1] | Relative immune effect (%) ([1]; treatment concentration 10 nm) | Relative immune effect (%) ([1]; treatment concentration 100 nm) | Relative immune effect (%) [1, 3] | Disease index [2, 4] [%] | Disease indexes of the tobacco [2] | Relative immune effects [2] [%] | Content of virus proteins ([2]; treatment concentration 0.1 nm) [b] | Relative immune effect (%) ([2]; treatment concentration 0.1 nm) | Disease index [2, 5] [b] | Content of virus proteins ([2]; treatment concentration 1 nm) [c] | also measured
CC(c1c[nH]c2ccccc12)C(N)C(=O)O (centres unmarked) | 63 | 45 | 57 | 43 | 53 | 33 | 44 | 27 | lower than 50 | exceeded 50% | 22.04 | 32.59 | 68.42% and 68.43% | 30.42 | lower than 50 | ≥ 45 | 0.41 ± 0.005 | 46.68 | 49.70 ± 1.51 | 0.32 ± 0.014 | Relative immune effect (%) ([1]; treatment concentration 1,000 nm): 53.58%; Relative immune effect (%) ([2]; treatment concentration 1 nm): 56.11%; Disease index [2, 6]: 40.91 ± 3.14c; Relative immune effect (%) ([2]; treatment concentration 10 nm): 67.36%
CC1CCNC1C(=O)O (centres unmarked) [3-methylpyrrolidine-2-carboxylic acid] | 67 | 47 | 54 | 42 | 49 | 28 | 39 | 24 | lower than 50 | exceeded 50% | 25.04 | 43.73 | 68.57% | 21.44 | lower than 50 | ≥ 50 | 0.37 ± 0.003 | 50.84 | 41.31 ± 0.34 | 0.24 ± 0.001 | Relative immune effect (%) ([2]; treatment concentration 1 nm): 68.43%; Disease index [2, 6]: 27.89 ± 2.16c; Relative immune effect (%) ([2]; treatment concentration 10 nm): 75.73%
